Patent US20020102259A1, “Methods and compositions for stimulating CD 45 and thereby suppressing microglial activation associated with Alzheimer's disease” (priority 2000, published 2002)
“Also recorded” adds a separate entry of the source.

Columns and labels:
[1] = tested on: primary cultured microglial cells; assay: Nitric oxide (NO) release assay on primary cultured microglial cells; format: cell-based, mouse; details: for NO release (microglial activation): phosphatase inhibitor co-treated with Aβ peptides (1000 nM), wild-type microglia, 12 hours; for NO release induced by phen and Aβ peptides: microglia activated with phen (5 mM) and Aβ peptides (1000 nM), 12 h, effect of added agent
Experimental: (§1) Breeding pairs of BALB/c and CD45 deficient (C57BL/601aHsd-Ptprc) mice were purchased from Jackson Laboratory (Bar Harbor, Maine) and housed in the animal facility at the University of South Florida Health Science Center. Tg APPSW mice are the 2576 line backcrossed to C57B6/SJL as previously described (Hsiao et al., 1995; Hsiao et al., 1996). Murine primary culture microglia were isolated from mouse cerebral cortices and were grown in RPMI medium supplemented with 5% fetal calf serum, 2 mM glutamine, 100 U/mL penicillin, […] streptomycin and 0.05 mM 2-mercaptoethanol according to previously described methods (Chao et al., 1992). Briefly, cerebral cortices from newborn mice (1-2 days old) were isolated under sterile conditions and were kept at 4 degrees Centigrade prior to mechanical dissociation. Cells were plated in […] flasks and complete medium was added. Primary cultures were kept for 14 days so that only glial cells remained, and microglia were isolated by shaking flasks at 200 rpm in a LabLine TM Incubator-Shaker. More than 98% of these glial cells stained positive for Mac-1 (CD11b /CD18; Boehringer Mannheim Biochemicals, Indianapolis, Ind.). Mouse primary culture neuronal cells were prepared as previously described (Chao et al., 1992). Briefly, cerebral cortices were isolated from BALB/c mouse embryos, between 15 to 17 days in utero, and cortices were mechanically dissociated in trypsin ([…]) following incubation for 15 min at 37° C. Cells were collected following centrifugation at 1200 rpm and resuspended in DMEM (GIBCO, Gaithersburg, Md.) supplemented with 10% fetal calf serum, 10% horse serum, uridine (33.6 mg/mL, Sigma Chemical-Co., St. Louis, Mo.) and fluorodeoxyuridine (1 3.6 mg/mL, Sigma) and plated in 24 well tissue-culture plates at 2.5×1 O′ cells/well after collagen-coating the plates. After 10 days in vitro, cells were passed in preparation for subsequent experiments. […] To verify CD45 deficiency status, CD45 expression in microglia isolated from CD45 -deficient mice was determined by FACS (fluorescence activated cell sorter) analysis as previously described (Tan et al., 1999a), and CD45 was undetectable in these cells (data not shown).
(§2) Primary cultured microglial cells were plated in 24-well tissue-culture plates (Costar, Cambridge, Mass.) at 5×10^4 cells/well and stimulated for 12 h with phen ([…]), Aβ peptides (1000 nM) or phen/Aβ peptides in the presence or absence of anti-CD45 antibody (1:200) or PD98059 ([…]) pre-treatment for 1 hour, or appropriate controls. […] The Bio-Rad protein assay (Bio-Rad Laboratories, Hercules, Calif.) was performed to measure total cellular protein from each of the cell groups under consideration just prior to quantification of cytokine release by ELISA or NO secretion by NO assay.

[2] = tested on: primary cultured microglial cells; assay: TNF-α ELISA on primary cultured microglial cells; format: cell-based, mouse; details: for TNF-α production (microglial activation): phosphatase inhibitor co-treated with Aβ peptides (1000 nM), wild-type microglia, 12 hours; for TNF-α release induced by phen and Aβ peptides: microglia activated with phen (5 mM) and Aβ peptides (1000 nM), 12 h, effect of added agent
Experimental: as §1, §2

[3] = tested on: p44/22 MAPK; assay: Immune complex kinase assay (phospho-Elk 1) in microglial cell lysates; format: cell-based, mouse; details: microglia co-treated with phen and Aβ peptides; effect of added agent
Experimental: Primary culture microglial cells were seeded in 6-well tissue-culture plates at 8×10^5 per well. Thirty minutes following co-treatment with phen and Aβ peptides in the presence or absence of anti-CD45 antibody or appropriate controls, microglial cells were lysed in ice-cold lysis buffer (as described above). Total cellular protein was quantified with the BioRad protein assay, and an aliquot of […] of protein for each treatment condition was separated by SDS-PAGE. p44/22 MAPK activity was determined using the p44/22 MAP-Kinase Assay Kit (New England BioLabs, Beverly, Mass.) in strict accordance with the manufacturer's instruction. The phosphorylated form of the Elk 1 p44/22 MAPK fusion protein was visualized by Western immunoblotting (as described above) using a specific antibody for phosphorylated Elk 1 supplied with the kit.

[4] = tested on: p44/22 MAPK; assay: Western immunoblotting of phosphorylated/total p44/22 MAPK in microglial cell lysates; format: cell-based, mouse; details: microglia co-treated with phen and Aβ peptides; effect of added agent
Experimental: Murine primary culture microglia were plated in 6 well tissue-culture plates at a density of 8×10^5 cells/well. These cells were incubated for 30 min with or without phen ([…]) and Aβ peptides (1000 nM) in the presence or absence of anti-CD45 or control antibodies (1:200 dilution for each) or PD98059 ([…]) pre-treatment for 1 hour, or appropriate controls. Immediately following culturing, microglia were washed in ice-cold phosphate buffered saline (PBS) 3×, scraped into ice-cold PBS, and lysed in an ice-cold lysis buffer containing 20 mM Tris (pH 7.5), 150 mM NaCl, 1 mM EDTA, 1 mM EGTA, 1% Triton X-100, 2.5 mM sodium pyrophosphate, 1 mM b-glycerolphosphate, 1 mM Na3VO4, 1 μg/mL leupeptin, and 1 mM PMSF. After incubation for 30 min. on ice, samples were centrifuged at high speed for 15 minutes, and supernatants were collected. Total protein content was estimated using the Bio-Rad protein assay. An aliquot corresponding to 50 μg of total protein of each sample was separated by SDS-PAGE and transferred electrophoretically to Hy-bond PVDF membranes. Non-specific antibody binding was blocked with 5% non-fat dry milk for 1 h at room temperature in TBS (20 mM Tris, 500 mM NaCl, pH 7.5). […] Densiometric analysis was preformed for all blots using the Fluor-S Multimager™ with Quantity One™ software (Bio-Rad, Calif.).

[5] = tested on: Tg APPSW mice; details: Tg APPSW mice given ibuprofen; cited from earlier work

Molecule	NO release (microglial activation) [1]	TNF-α production (microglial activation) [2]	NO release induced by phen and Aβ peptides [1]	TNF-α release induced by phen and Aβ peptides [2]	further results
[Na+].[Na+].[Na+].[O]=[V]([O-])([O-])[O-] [sodium orthovanadate]	results similar to phen and Aβ peptide co-treatment	results similar to phen and Aβ peptide co-treatment	–	–	–
C=C1[C@@H](O)[C@@H]2O[C@]3(CC[C@H](/C=C/[C@@H](C)[C@@H]4CC(C)=C[C@@]5(O[C@H](C[C@@](C)(O)C(=O)O)CC[C@H]5O)O4)O3)CC[C@H]2O[C@@H]1[C@@H](O)C[C@H](C)[C@H]1O[C@@]2(CCCCO2)CC[C@H]1C [okadaic acid]	not detectable	not detectable	–	–	–
COc1cccc(-c2cc(=O)c3ccccc3o2)c1N [PD98059]	–	–	markedly decreased; also recorded: statistically interactive blockade	markedly decreased; also recorded: statistically interactive blockade	phen and Aβ-mediated activity of p44/22 MAPK [3]: significant reduction; phen and Aβ-mediated phosphorylation of p44/22 MAPK [4]: significant reduction
CC(C)Cc1ccc(C(C)C(=O)O)cc1 (centres unmarked) [ibuprofen]	–	–	–	–	Aβ deposits, astrocytosis, and dystrophic neurites [5]: reduction
CD45 recombinant protein: Human CD45 recombinant protein obtained from CALBIOCHEM, added at 20 U/mL (protein, UniProt P08575 26-1306, looked up) Receptor-type …: QSPTPSPTGLTTAKMPSVPLSSDPLPTHTTAFSPASTFERENDFSETTTSLSPDNTSTQVSPDSLDNASAFNTTGVSSVQTPHLPTHADSQTPSAGTDTQTFSGSAANAKLNPTPGSNAISDVPGERSTASTFPTDPVSPLTTTLSLAHHSSAALPARTSNTTITANTSDAYLNASETTTLSPSGSAVISTTTIATTPSKPTCDEKYANITVDYLYNKETKLFTAKLNVNENVECGNNTCTNNEVHNLTECKNASVSISHNSCTAPDKTLILDVPPGVEKFQLHDCTQVEKADTTICLKWKNIETFTCDTQNITYRFQCGNMIFDNKEIKLENLEPEHEYKCDSEILYNNHKFTNASKIIKTDFGSPGEPQIIFCRSEAAHQGVITWNPPQRSFHNFTLCYIKETEKDCLNLDKNLIKYDLQNLKPYTKYVLSLHAYIIAKVQRNGSAAMCHFTTKSAPPSQVWNMTVSMTSDNSMHVKCRPPRDRNGPHERYHLEVEAGNTLVRNESHKNCDFRVKDLQYSTDYTFKAYFHNGDYPGEPFILHHSTSYNSKALIAFLAFLIIVTSIALLVVLYKIYDLHKKRSCNLDEQQELVERDDEKQLMNVEPIHADILLETYKRKIADEGRLFLAEFQSIPRVFSKFPIKEARKPFNQNKNRYVDILPYDYNRVELSEINGDAGSNYINASYIDGFKEPRKYIAAQGPRDETVDDFWRMIWEQKATVIVMVTRCEEGNRNKCAEYWPSMEEGTRAFGDVVVKINQHKRCPDYIIQKLNIVNKKEKATGREVTHIQFTSWPDHGVPEDPHLLLKLRRRVNAFSNFFSGPIVVHCSAGVGRTGTYIGIDAMLEGLEAENKVDVYGYVVKLRRQRCLMVQVEAQYILIHQALVEYNQFGETEVNLSELHPYLHNMKKRDPPSEPSPLEAEFQRLPSYRSWRTQHIGNQEENKSKNRNSNVIPYDYNRVPLKHELEMSKESEHDSDESSDDDSDSEEPSKYINASFIMSYWKPEVMIAAQGPLKETIGDFWQMIFQRKVKVIVMLTELKHGDQEICAQYWGEGKQTYGDIEVDLKDTDKSSTYTLRVFELRHSKRKDSRTVYQYQYTNWSVEQLPAEPKELISMIQVVKQKLPQKNSSEGNKHHKSTPLLIHCRDGSQQTGIFCALLNLLESAETEEVVDIFQVVKALRKARPGMVSTFEQYQFLYDVIASTYPAQNGQVKKNNHQEDKIEFDNEVDKVKQDANCVNPLGAPEKLPEAKEQAEGSEPTSGTEGPEHSVNGPASPALNQGS	–	–	markedly decreased	markedly decreased	–
